PMC3555856, “In vitro α-glucosidase inhibitory activity of phenolic constituents from aerial parts of Polygonum hyrcanicum” (DARU Journal of Pharmaceutical Sciences, 2012)
Where two headings read alike, the source gives them in different places.

Key:
[1] = target: T1, α-glucosidase (EC 3.2.1.20, from baker's yeast) (Saccharomyces cerevisiae, UniProt P53341); assay: biochemical; settings: pH 6.9, 37°C
T1 construct: purchased Sigma-Aldrich Chemie (Germany)
Description: Column chromatography was carried out using silica gel (230–400 mesh) obtained from Merck (Germany), RP-18 (230–400 mesh) and Sephadex LH-20 procured from Fluka (Switzerland). Pre-coated silica gel 60 F254 plates and silica gel 60 RP-18 F254S plates (Merck, Germany) were used for TLC. Spots were observed under UV at 254 and 366 nm and spraying with anisaldehyde-H2SO4 reagent (Sigma-Aldrich Chemie, Germany) and heating at 120°C for 5 min. HPLC separations were performed on a Knauer Wellchrom system connected to a photodiode array detector (Smart line system, Germany). ^1H and ^13C NMR spectra were measured on a Bruker Avance DRX 500 spectrometer operating at 500 MHz for ^1H and 125 MHz for ^13C using a 5 mm PABBO probehead. α-glucosidase (EC 3.2.1.20, from baker’s yeast, 77 U/mg), p-nitrophenyl-α-d-glucopyranoside, vitamin E 97% and 2, 2-diphenyl-picrylhydrazyl (DPPH) were obtained from Sigma-Aldrich Chemie (Germany). Sodium carbonate, FeCl3, sodium acetate, ferrous sulfate [FeSO4.7H2O], gallic acid, 2, 4, 6-tripyridyl-s-triazine (TPTZ) solution, and Folin-Ciocalteu reagent were all obtained from Merck (Germany).
α-Glucosidase inhibitory activities were evaluated according to the chromogenic method described by McCue et al. (2005), with some modifications. The enzyme solution contained 20 μl α-glucosidase (0.5 unit/ml) and 120 μl 0.1 M phosphate buffer (pH 6.9). p-Nitrophenyl-α-D-glucopyranoside (5 mM) in the same buffer (pH 6.9) was used as a substrate solution. Ten microliters of test samples, dissolved in DMSO at various concentrations, were mixed with enzyme solution in microplate wells and incubated for 15 min at 37°C. Twenty microliters of substrate solution were added and incubated for an additional 15 min. The reaction was terminated by adding 80 μl of 0.2 M sodium carbonate solution. Absorbance of the wells was measured with a microplate reader at 405 nm, while the reaction system without plant extracts was used as control. […] Each experiment was conducted in triplicate. The enzyme inhibitory rates of samples were calculated as follows:
Inhibition%=[(control absorption-sample absorption)/control absorption)]×100.
The IC50 values of samples were calculated and reported as the mean ± standard deviation (SD) of three experiments.

[2] = DPPH free radical scavenging activity; settings: absorbance at 517 nm after 30 minutes
Description: The antioxidant activities of the extracts were determined with the DPPH assay according to an established protocol. Extract solutions of 500, 250, 100, and 50 μg/ml were prepared in methanol. Each test tube contained 1 ml of the samples and 2 ml freshly prepared DPPH solution of 40 μg/ml in methanol. […] Absorbance of the mixtures were recorded at 517 nm after 30 minutes, against the blank covets of DPPH solution. Vitamin E was used as a positive control. All samples were assayed in triplicate and IC50 values were calculated.

[3] = FRAP assay (ferric-reducing ability); settings: 37°C, 10 minutes, 593 nm
Description: Antioxidant activities of plant extracts were evaluated by monitoring their ferric-reducing abilities. Freshly prepared FRAP reagent contained 5 ml FeCl3 (20 mM) plus 5 ml of a 10 mM TPTZ solution in 40 mM HCl and 50 ml of 300 mM acetate buffer (pH = 3.6). One hundred microliters of the samples, dissolved in methanol at various concentrations, were mixed with 3 ml FRAP reagent and incubated at 37°C for 10 minutes; the absorptions at 593 nm were recorded. A calibration curve was generated in the range of 125–750 μM ferrous sulfate (FeSO4.7H2O). Vitamin E was used as a positive control and the results were expressed as mmol ferrous ion equivalent per gram of extracts.

[4] = α-Glucosidase inhibitory activity IC50, mean ± SD of three experiments
[5] = mean ± SD of three experiments, read-out: α-Glucosidase inhibitory activity IC50

T1 sequence (P53341 whole entry): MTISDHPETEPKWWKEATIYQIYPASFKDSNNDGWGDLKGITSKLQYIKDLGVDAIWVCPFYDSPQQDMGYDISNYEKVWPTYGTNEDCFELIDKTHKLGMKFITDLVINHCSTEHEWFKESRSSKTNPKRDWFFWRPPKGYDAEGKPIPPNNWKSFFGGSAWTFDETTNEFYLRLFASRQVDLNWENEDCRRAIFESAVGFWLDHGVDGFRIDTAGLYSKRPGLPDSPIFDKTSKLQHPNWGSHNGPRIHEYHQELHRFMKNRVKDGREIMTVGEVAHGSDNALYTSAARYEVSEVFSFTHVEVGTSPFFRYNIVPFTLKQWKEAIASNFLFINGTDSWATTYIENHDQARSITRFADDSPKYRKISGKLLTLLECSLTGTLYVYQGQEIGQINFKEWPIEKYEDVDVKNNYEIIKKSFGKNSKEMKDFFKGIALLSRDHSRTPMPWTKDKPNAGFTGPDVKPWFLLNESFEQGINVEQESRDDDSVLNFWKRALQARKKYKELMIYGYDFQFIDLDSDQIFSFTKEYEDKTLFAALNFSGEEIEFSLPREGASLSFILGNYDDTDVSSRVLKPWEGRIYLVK

| Compound | IC50 [1, 5] [µM] | also measured |
| --- | --- | --- |
| Oc1cc(O)c2c(c1)OC(c1cc(O)c(O)c(O)c1)C(O)C2 (single isomer, unassigned; (-)) [Compound 8, (-) gallocatechin] |  | IC50 [1, 4]: 1 ± 0.3 µM |
| CC(=O)OC[C@@H]1O[C@@H](Oc2c(-c3ccc(O)c(O)c3)oc3cc(O)cc(O)c3c2=O)[C@H](O)[C@H]1OC(C)=O [Compound 4, quercetin 3-O-α-L-(3",5"-diacetyl-arabinofuranoside)] | 4.9 ± 1.5 |  |
| CC(=O)OC1C(CO)OC(Oc2c(-c3ccc(O)c(O)c3)oc3cc(O)cc(O)c3c2=O)C1O [Compound 5, quercetin 3-O-α-L-(3"-acetyl-arabinofuranoside)] | 4.8 ± 1.9 |  |
| Oc1cc(O)c2c(c1)OC(c1ccc(O)c(O)c1)C(O)C2 (single isomer, unassigned; (+)) [Compound 7, (+) catechin] | 6.6 ± 3.5 |  |
| O=C(/C=C/c1ccc(O)c(O)c1)NCCc1ccc(O)cc1 [Compound 3, N-trans-caffeoyl-tyramine] | 0.3 ± 0.3 |  |
| O=c1c(O)c(-c2cc(O)c(O)c(O)c2)oc2cc(O)cc(O)c12 [Compound 2, myricetin] |  | IC50 [1, 4]: 1.3 ± 0.6 µM |
| O=c1c(O[C@@H]2O[C@@H](CO)[C@H](O)[C@H]2O)c(-c2ccc(O)c(O)c2)oc2cc(O)cc(O)c12 [Compound 13, quercetin 3-O-α-L-arabinofuranoside] |  | IC50 [1, 4]: 7.6 ± 0.9 µM |
| vitamin E |  | DPPH assay IC50 [2]: 14.12 ± 0.9 µg/mL; DPPH assay IC50 ([2]; listed as vitamin E): 14.1 µg/mL; FRAP assay [3]: 2.40 ± 0.76 mmol ferrous ion equivalent/g; FRAP assay ([3]; listed as vitamin E): 2.4 mmol ferrous ion equivalent/g |
| O=c1c(OC2OC(CO)C(O)C(O)C2O)c(-c2cc(O)c(O)c(O)c2)oc2cc(O)cc(O)c12 [Compound 9, myricetin 3-O-β-D-galactopyranoside] | 4.8 ± 0.8 |  |
| O=c1c(O[C@@H]2O[C@@H](CO)[C@H](O)[C@H]2O)c(-c2cc(O)c(O)c(O)c2)oc2cc(O)cc(O)c12 [Compound 12, myricetin 3-O-α-L-arabinofuranoside] | 4.2 ± 2.9 |  |
| CC(=O)OC[C@@H]1O[C@@H](Oc2c(-c3cc(O)c(O)c(O)c3)oc3cc(O)cc(O)c3c2=O)[C@H](O)[C@H]1OC(C)=O [Compound 6, myricetin 3-O-α-L-(3",5"-diacetyl-arabinofuranoside)] | 5.8 ± 2.8 |  |
